The values that follow come from article PMC7507342, “A Cell‐Free Platform Based on Nisin Biosynthesis for Discovering Novel Lanthipeptides and Guiding their Overproduction In Vivo” (Advanced Science, 2020).

Non-standard residues stand in square brackets, D forms with d. No end group written: not given here. Dhb = C/C=C(\N)C(=O)O; Dha = C=C(N)C(=O)O Where only a bound is given, the exact number is not on record here.

Assay [1] concerns M. luteus. In words: MIC determination in 96-well plates. The following applies: for MIC M. luteus: 96-well plate, bioassay medium, 5.0 × 10^5 CFU mL^−1, 37 °C, 24 h, OD600, n=3. In kind it is cell-based, Micrococcus luteus. An excerpt:
(§1) The CFPS system is for quick screening of potential antimicrobial lanthipeptides, and we then purified enough compounds of the screened nisin analogs for structure identification and activity assays. We prepared mLanAs for the novel lanthipeptides (RL6, RL8, RL13, and RL14) in E. coli (Table S2, Supporting Information) and removed their leader peptides in vitro, as it is more economical to mass produce targeted lanthipeptides using this previously reported method^[ ^4 ^] rather than to use CFPS to mass produce lanthipeptides. Nisin and most lanthipeptides are not pure products in the commercially available and standard products, they are a mixture of different dehydrating ingredients resulting from incomplete NisB catalysis. Therefore, we verified that the decisive antibacterial component in the currently commercially available nisin is the eightfold dehydrated component (Figure S5, Supporting Information). […] We treated the novel lanthipeptides with the thiol‐alkylating reagent N‐ethylmaleimide (NEM) to sequester any noncyclic Cys residues, and evaluated ring topology using LC‐MS (Figure S7, Supporting Information). […] We quantified these four novel lanthipeptides using the purified eight‐fold dehydrated component of nisin as a standard.
(§2) MICs were determined according to a previously described method^[ ^38 ^] with minor modifications. Briefly, the test medium for clinical strain species was MHB broth (BD Difco), LB broth was used for E. coli, and bioassay medium containing 1.2% tryptone, 0.75% yeast extract, 0.75% NaCl, 0.3% NaH2PO4, and 0.75% glucose was used for M. luteus. Bacteria were grown overnight to the early stationary phase and adjusted in corresponding culture medium to 5.0 × 10^5 CFU mL^−1 in the wells of 96‐well microtiter plates, mixed with varying concentrations of test compounds, and incubated at 37 °C for 24 h. Cell growth was evaluated by measuring the optical density at 600 nm, and the MIC was defined as the lowest compound concentration at which no bacterial growth was observed.
(§3) Table S3. MIC Values of Several Lanthipeptides Against Microorganisms
(§4) MIC* mg/L(μM) M. luteus E. faecalis S. aureus MRSA
(§5) Note: * The test lanthipeptide is a mixture of different dehydration molecules . Quantification of
(§6) lanthipeptides was performed using the eight-fold dehydrated molecules (n=3). The data

Assay [2] relates to E. faecalis (clinical pathogenic strain). In words: MIC determination in 96-well plates. The following applies: for MIC E. faecalis: 96-well plate, MHB broth, 5.0 × 10^5 CFU mL^−1, 37 °C, 24 h, OD600, quantified as eight-fold dehydrated molecules, n=3. In kind it is cell-based, Enterococcus faecalis.
Text: as §1, §2, §3, §4, §5, §6

Assay [3] relates to S. aureus (clinical pathogenic strain). In words: MIC determination in 96-well plates. In kind it is cell-based, Staphylococcus aureus. The following applies: 96-well plate, MHB broth, 5.0 × 10^5 CFU mL^−1, 37 °C, 24 h, OD600, quantified as eight-fold dehydrated molecules, n=3.
Text: as §1, §2, §3, §4, §5, §6

The subject of assay [4] is MRSA (clinical pathogenic strain). In words: MIC determination in 96-well plates. In kind it is cell-based, methicillin‐resistant S. aureus. The following applies: 96-well plate, MHB broth, 5.0 × 10^5 CFU mL^−1, 37 °C, 24 h, OD600, quantified as eight-fold dehydrated molecules, n=3.
Text: as §1, §2, §3, §4, §5, §6

The subject of assay [5] is Micrococcus luteus NCIB 8166. In words: Agar diffusion bioassay of CFPS mixture. Type of assay: cell-based. As to conditions: agar diffusion method; CFPS reaction 6 h. How it is done:
We evaluated the performance of our CFPS platform for nisin biosynthesis. Each plasmid (0.5 nmol L^−1) (pJL1‐nisZ, pET28a‐nisB, pET28a‐nisC, and pET28a‐nisP) was added into the CFPS platform and incubated for 6 h (Figure 1A). The 400 µL of reaction mixture was concentrated to 20 µL and the concentrated mixture was then detected by tandem mass spectrometry (LC‐MS‐MS). The results confirmed that fully modified nisin Z was produced in the CFPS mixture (Figure 1B).
These hybrid precursor peptides were then cloned into the pJL1 plasmid. Bagelicin, a nisin analog with antibacterial activity that was identified using a previously described in vivo screening system,^[ ^5 ^] was chosen as the positive control for validation. The pJL1‐nisZ plasmid in our CFPS platform was replaced with the hybrid precursor peptide plasmids (pRL1‐pRL18 and pJL1‐bagelicin). After incubation for 6 h, the bagelicin CFPS mixture (positive control) was analyzed by LC‐MS‐MS and bioassays.
The activity levels of nisin and new lanthipeptides were determined by a previously described agar diffusion method, with minor modifications.^[ ^37 ^] Briefly, a stock nisin solution 1000 IU mL^−1) was prepared by adding 50 mg of commercial nisin (10^6 IU g^−1; Sigma‐Aldrich, St. Louis, MO, USA) into 50 mL of sterile 0.02 mol L^−1 HCl. […]
For orientation: Agar diffusion results depend on both activity and mobility in agar.

For assay [6], the system named is E. coli DH5α. In words: E. coli DH5α growth (OD600) in LB medium with EDTA and purified lanthipeptide. Type of assay: cell-based, Escherichia coli. How it is done: Figure 4 Screening of nisin mutants using the CFPS system. A) Schematic illustration of the screening for nisin mutants. B) Nisin and nisin mutants. Dha, dehydrolalanine; Dhb, dehydrobutyrine; Abu, 2‐aminobutyric acid. C) Heat‐map of antimicrobial activity of nisin mutants against E. coli in the second round of screening. After adding the CFPS mixture to E. coli and incubating for 8 h, the ΔOD600 value represents the OD600 of E. coli with added nisin mutant CFPS mixture minus the OD600 (control group) of E. coli with nisin CFPS mixture in the same plate. Yellow areas represent an inhibitory effect on E. coli. […] The test lanthipeptide is a mixture of different dehydration molecules, quantification of lanthipeptides was performed using the eightfold dehydrated molecules. […]
Next, to verify the reliability of the CFPS platform for screening, abundant lanthipeptides are required to characterize the structure and anti‐E. coli ability of the mutants. […] The structures were identified by LC‐MS‐MS (Figure 4B; Figure S6, Supporting Information) and the […] rings were detected by NEM reaction (Figure S7, Supporting Information). […]
Figure S8. OD600 of E. coli DH5α in LB Medium with Different Concentrations of EDTA and Nisin after 18 h of Co-culture (n=3) ΔOD600 indicates the difference between readings with different concentrations of blank media. […]

Where [7] appears, read: mixture of dehydration molecules quantified as eight-fold dehydrated molecules.
Where [8] appears, read: value in parentheses, quantified as eight-fold dehydrated molecules.
The mark [9] stands for this setting: summary of Table S3 in the text.

For “IT SKSLC TPGCKTGALMT CPIKTAT CGCHFGN (bicyclic or more) [RL13, novel lanthipeptide, nisin analog, core peptide from Streptococcus equinus]”, the “MIC M. luteus” value in assay [1] (setting [7]) came out at 0.24 µg/mL; in assay [1] (setting [8]), 0.077 µM. In addition, the “MIC E. faecalis” value is 250 µg/mL in assay [2] and 80.8 µM in assay [2] (value in parentheses). In addition, the “MIC S. aureus” value in assay [3] is above 250 µg/mL; in assay [3] (value in parentheses), above 80.8 µM. Moreover, the “MIC MRSA” value in assay [4] is above 250 µg/mL; in assay [4] (value in parentheses) it was above 80.8 µM.

Take “IT SKSLC TPGCVTGVLMGCALKTIT CNC SVGIGKK (bicyclic or more) [RL14, novel lanthipeptide, nisin analog, core peptide from Enterococcus rotai/Enterococcus moraviensis]”: the “MIC M. luteus” value worked out at 0.015 µg/mL in assay [1] (setting [7]) and 0.0045 µM in assay [1] (setting [8]). Besides, the “antibacterial activity against M. luteus (in words)” value in assay [1] (setting [9]) is “outperforming nisin”. For the same substance, the entries for the “MIC E. faecalis” value in assay [2] and in assay [2] (value in parentheses) were 62.5 µg/mL and 18.69 µM, respectively. For the same substance, the “antibacterial activity against E. faecalis (in words)” value in assay [2] (setting [9]) was “outperforming nisin”. Besides, the “MIC S. aureus” value worked out at 250 µg/mL in assay [3] and 74.75 µM in assay [3] (value in parentheses). Besides, the “MIC MRSA” value was 250 µg/mL in assay [4] and 74.75 µM in assay [4] (value in parentheses).

As for “IT SVSLC TPGCKTGALMGCNMKTAS CGCHVHVSK (bicyclic or more) [RL6, novel lanthipeptide, nisin analog, core peptide from Leuconostoc gelidum]”, the figures for the “MIC M. luteus” value in assay [1] (setting [7]) and in assay [1] (setting [8]) were 0.12 µg/mL and 0.037 µM, respectively. The “MIC E. faecalis” value came to 250 µg/mL in assay [2] and 76.17 µM in assay [2] (value in parentheses). Moreover, the “MIC S. aureus” value in assay [3] is above 250 µg/mL; in assay [3] (value in parentheses), above 76.17 µM. The “MIC MRSA” value is above 250 µg/mL in assay [4] and above 76.17 µM in assay [4] (value in parentheses).

With “Nisin A: commercialized nisin, class I lanthipeptide, food preservative (I[Dhb]SI[Dha]LCTPGCKTGALMGCNMKTATCHCSIHV[Dha]K; cysteine pairing not given here; also: lanthipeptide thioether crosslinks and dehydrated residues, positions not given here; UniProt P13068 24-57, looked up) [reference compound]”, the entries for the “MIC M. luteus” value in assay [1] (setting [7]) and in assay [1] (setting [8]) were 0.06 µg/mL and 0.018 µM, respectively. Besides, the “MIC E. faecalis” value in assay [2] was 250 µg/mL; in assay [2] (value in parentheses), 74.53 µM. In addition, the results for the “MIC S. aureus” value in assay [3] and in assay [3] (value in parentheses) were 125 µg/mL and 37.27 µM, respectively. The “MIC MRSA” value in assay [4] was 125 µg/mL; in assay [4] (value in parentheses), 37.27 µM.

Consider “Nisin Z: type I lanthipeptide nisin Z, synthesized by CFPS or from mLanA expressed in E. coli (I[Dhb]SI[Dha]LCTPGCKTGALMGCNMKTATCNCSIHV[Dha]K; cysteine pairing not given here; also: lanthipeptide thioether crosslinks and dehydrated residues, positions not given here; UniProt P29559 24-57, looked up) [reference compound]”, for which the “antibacterial activity of CFPS mixture on M. luteus plate (in words)” value in assay [5] is given as “obvious zone of inhibition”. Further, the “MIC M. luteus” value is 0.12 µg/mL in assay [1] (setting [7]) and 0.036 µM in assay [1] (setting [8]). Moreover, the “MIC E. faecalis” value turned out to be 250 µg/mL in assay [2] and 75.05 µM in assay [2] (value in parentheses). For the same substance, the “MIC S. aureus” value amounted to 250 µg/mL in assay [3] and 75.05 µM in assay [3] (value in parentheses). Further, the figures for the “MIC MRSA” value in assay [4] and in assay [4] (value in parentheses) were 125 µg/mL and 37.52 µM, respectively. The “inhibition of E. coli DH5α growth with EDTA (OD600)” value in assay [6] (320 μM EDTA, nisin Z 24, 48, 96 μM, 18 h co-culture, n=3 (Figure S8)) is “obvious”. Also, the “inhibition of E. coli DH5α growth at 20-fold the reported nisin concentration” value in assay [6] (18 h co-culture (Figure S8)) is on record as “did not exhibit”.

Regarding “VT SISLC TPGCKTGILMT CAIKTAT CGCHF [Bagelicin]”, the “antibacterial activity of CFPS mixture on M. luteus plate (in words)” value in assay [5] is “contained anti‐M. luteus activity”.

For “VT SKSLC TPGCKTGILQT CAIKSAT CGC SIHIGK (bicyclic or more) [RL8, novel lanthipeptide, nisin analog, core peptide from Bacillus cereus]”, the “MIC M. luteus” value in assay [1] (setting [7]) came to 0.24 µg/mL; in assay [1] (setting [8]), 0.073 µM. The “MIC E. faecalis” value in assay [2] worked out at 250 µg/mL; in assay [2] (value in parentheses), 76.52 µM. The “MIC S. aureus” value in assay [3] is above 250 µg/mL; in assay [3] (value in parentheses) it was above 76.52 µM. For the same substance, the entries for the “MIC MRSA” value in assay [4] and in assay [4] (value in parentheses) were above 250 µg/mL and above 76.52 µM, respectively.
